Non-standard residues stand in square brackets, D forms with d. Residues, ends and D or L forms follow the SMILES beside them.

This assay deals with hot plate response. Put plainly: Hot plate test (central analgesia). It is filed as in vivo. Particulars: mouse hot plate test, even at doses of 100mg/kg. From the text:
It was thought that non-polar peptides pass more easily into the central nervous system than polar peptides by traversing the blood-brain barrier. […] This test is standard and known to persons skilled in the art. The test detects chemicals that exert a centrally mediated analgesic response.
The term "ED50" as shown in table 1 for the PBQ writhing assays is defined as the dose of drug which induces a 50% reduction in the number of writhes observed compared to the control.
PBQ (phenylbenzoquinone) induced writhing in mice is an assessment of both central and peripheral analgesia. For experimental protocol see Sigmund et al., Proc. Soc. Exp. Biol. Med., 95, p. 729 (1957). Central analgesia was determined by the inhibition of a hot plate response in mice. For experimental protocol see G. Woolfe and A. Macdonald, J. Pharmacol. Exp. Ther., 80, p.300 (1944). Assays measuring opioid receptor binding affinities for µ and δ receptors as well as GPI and MVD assays were determined through experimental protocol set out in Schiller et al., Biophys. Res. Commun., 85, p.1322 (1975). […]
The mice were individually evaluated for reaction time on the hot plate. […]
For each time reading, the average reaction time of the control group was multiplied by 1.5. […] The number of analgesic mice in a group determined the analgesic percentage of the compound for this reading.
A general note: In hot-plate and tail-flick tests a longer latency is read as antinociception.

Regarding `C[C@@H](NC(=O)[C@@H](N)Cc1ccc(O)cc1)C(=O)N[C@@H](Cc1ccccc1)C(=O)N[C@@H](Cc1ccccc1)C(N)=O` [TAPP, H-Tyr-D-Ala-Phe-Phe-NH2] (H-Y[dA]FF-NH2), the analgesic effect result is “lack of analgesic effect”.

The record behind these values is EP0746567B1, “NOVEL OPIOID PEPTIDES FOR THE TREATMENT OF PAIN AND USE THEREOF” (AstraZeneca AB, priority 1994, dated 2002).
